A short description of one data set: Water solubility. The format is physicochemical. The conditions noted are these: table of example 2.
For data set [1] the following is noted: water solubility of known insoluble antagonists, stated in the description; cited from earlier work.

Converted amounts (≈) assume the structure as drawn. Read-outs that look alike come from different tables or passages of the source. Bridge positions count the residues as written; N and C are the ends. Square brackets hold non-standard residues; d marks the D form. Peptide text beside a SMILES is read from it. * marks the point of attachment. βGal = OC[C@H]1O[C@@H](*)[C@H](O)[C@@H](O)[C@H]1O; X1 = OC[C@H]1O[C@@H](N*)[C@H](O)[C@@H](O)[C@H]1O; Dap = NC[C@H](N)C(=O)O

The term Solubility denotes how much of the substance goes into solution per volume. For `CC(C)C[C@@H]1NC(=O)[C@@H]2CNC(=O)C[C@H](NC(=O)[C@H](CO[C@@H]3O[C@H](CO)[C@H](O)[C@H](O)[C@H]3O)NC1=O)C(=O)N[C@@H](Cc1c[nH]c3ccccc13)C(=O)N[C@@H](Cc1ccccc1)C(=O)N2` [Comparative example 1, cyclo[Ser^1 (β-D-Gal)-Asp^2 -Trp^3 -Phe^4 -Dap^5 -Leu^6]cyclo(2β-5β)] (cyclo(DWF[Dap]LS(βGal)); lactam 1-4), the Solubility in “Water solubility” amounted to 2.020 µg/mL (≈ 2.3 µM). For `CC(C)C[C@@H]1NC(=O)[C@@H]2CNC(=O)C[C@H](NC(=O)[C@H](CC(=O)N[C@@H]3O[C@H](CO)[C@H](O)[C@H](O)[C@H]3O)NC1=O)C(=O)N[C@@H](Cc1c[nH]c3ccccc13)C(=O)N[C@@H](Cc1ccccc1)C(=O)N2` [Comparative example 2, cyclo[Asn^1 (β-D-Gal)-Asp^2 -Trp^3 -Phe^4 -Dap^5 -Leu^6]cyclo(2β-5β)] (cyclo(D(X1)DWF[Dap]L); lactam 2-5), in the data set “Water solubility”, the Solubility was 1.980 µg/mL (≈ 2.19 µM). Still for that read-out and setting: the figure for `CC(C)C[C@@H]1NC(=O)[C@@H]2CNC(=O)C[C@H](NC(=O)[C@H](CS[C@@H]3O[C@H](CO)[C@H](O)[C@H](O)[C@H]3O)NC1=O)C(=O)N[C@@H](Cc1c[nH]c3ccccc13)C(=O)N[C@@H](Cc1ccccc1)C(=O)N2` [Example 1, cyclo[Cys^1 (β-D-Gal)-Asp^2 -Trp^3 -Phe^4 -Dap^5 -Leu^6]cyclo(2β-5β)] (cyclo(C(βGal)DWF[Dap]L); lactam 2-5) is 1.800 µg/mL (≈ 2.01 µM). As for `CSCC[C@@H]1NC(=O)[C@H](CC(C)C)NC(=O)[C@@H]2CNC(=O)C[C@H](NC1=O)C(=O)N[C@@H](Cc1c[nH]c3ccccc13)C(=O)N[C@@H](Cc1ccccc1)C(=O)N2` [MEN 10627] (cyclo(DWF[Dap]LM); lactam 1-4), the Solubility (in “Water solubility”; in data set [1]) was 15 µg/mL (≈ 19.7 µM) each time.

These data come from patent publication US6075006A, “Soluble tachykinin antagonists, the preparation and use thereof” (Centro Interuniversitario di Ricera Sui Peptidi …, priority 1996, dated 2000).
